Strand notation (5' to 3'): a small letter for the sugar, then the base; units joined by * are phosphorothioate-linked, units joined directly phosphodiester-linked; [ ] holds rarer units or linkages, { } end groups; capitals alone tell only the bases. k = constrained ethyl (cEt); [5mC] = 5-methylcytosine; d = 2'-deoxy (DNA)

The values that follow come from patent publication US11214803B2, “Modulators of YAP1 expression” (Ionis Pharmaceuticals, Inc., priority 2019, dated 2022).

The test system of this data set is Yap1 mRNA. Put plainly: Antisense inhibition of human Yap1 in A-431 cells by cEt gapmers, single dose (Example 2, RTS4814). Format: cell-based. In short, it runs like this: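 A-431 cells (5,000/well) received 2,000 nM oligonucleotide by free uptake for about 48 h. Yap1 mRNA was then quantified by RT-qPCR with primer probe set RTS4814, normalized to RIBOGREEN total RNA, and reported as % of untreated control; asterisked values mark oligos inside the amplicon.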

Setting [1] is: Table 25, Yap1 mRNA as percent of untreated control, 3-10-3 cEt gapmers targeting SEQ ID NO.: 1, and 2.
The mark [2] stands for this setting: Table 19, A-431 cells, 5,000 cells per well, free uptake, 2,000 nM modified oligonucleotide, approx. 48 hours, RTS4814, normalized to RIBOGREEN, Yap1 mRNA as percent of untreated control.
[3] abbreviates: Table 20, Yap1 mRNA, percent of untreated control, 3-10-3 cEt gapmers targeting SEQ ID NO.: 1 and 2.
Setting [4] is: A-431 cells, 5,000 cells per well, free uptake, 2,000 nM modified oligonucleotide, approx. 48 hours, RTS4814, normalized to RIBOGREEN, Table 4, asterisk (*) = targets amplicon region of primer probe set.
[5] abbreviates: Table 5, A-431 cells, 5,000 cells per well, free uptake, 2,000 nM modified oligonucleotide, approx. 48 hours, RTS4814, normalized to RIBOGREEN, Yap1 mRNA relative to untreated control cells.
The mark [6] stands for this setting: Table 24, Yap1 mRNA as percent of untreated control, 3-10-3 cEt gapmers targeting SEQ ID NO.: 1, and 2.
[7] abbreviates: Yap1 mRNA as percent of untreated control, A-431 cells, 3-10-3 cEt gapmers targeting SEQ ID NO.: 1, and 2, Table 31.
Where [8] appears, read: Table 32, Yap1 mRNA, percent of untreated control, 3-10-3 cEt gapmers targeting SEQ ID NO.: 1, and 2.
The mark [9] stands for this setting: Table 21, Yap1 mRNA, percent of untreated control, 3-10-3 cEt gapmers targeting SEQ ID NO.: 1 and 2.
The mark [10] stands for this setting: Yap1 mRNA as percent of untreated control, A-431 cells, 3-10-3 cEt gapmers targeting SEQ ID NO.: 1, and 2, Table 30.
Where [11] appears, read: Table 6, A-431 cells, 5,000 cells per well, free uptake, 2,000 nM modified oligonucleotide, approx. 48 hours, RTS4814, normalized to RIBOGREEN, Yap1 mRNA relative to untreated control cells.
The mark [12] stands for this setting: Table 33, Yap1 mRNA, percent of untreated control, 3-10-3 cEt gapmers targeting SEQ ID NO.: 1, and 2.
Where [13] appears, read: Table 23, Yap1 mRNA as percent of untreated control, 3-10-3 cEt gapmers, single dose.

On to “1076139 (k[5mC]*kG*kA*dA*dA*dA*dA*dA*dG*d[5mC]*d[5mC]*dA*dA*k[5mC]*kA*kA; antisense) [Compound 1076139]”, for which the “YAP1 (% UTC)” value under setting [1] came to 18 % UTC.

For “1074917 (antisense k[5mC]*kA*kA*dG*dT*dT*dA*d[5mC]*dA*dT*d[5mC]*d[5mC]*d[5mC]*kG*kA*kG) [Compound 1074917]”, under setting [2], the “YAP1 (% UTC)” value is 80 % UTC.

On to “1074118 (antisense k[5mC]*kA*k[5mC]*dT*d[5mC]*dG*dG*dA*d[5mC]*d[5mC]*dT*dG*d[5mC]*kG*kG*k[5mC]) [Compound 1074118]”, for which the “YAP1 (% UTC)” value under setting [3] was 66 % UTC.

Consider “716520 (antisense kA*kG*kT*d[5mC]*dT*dT*dT*dA*dT*dT*dA*dA*dA*kG*kA*kG) [Compound 716520]”, for which the “YAP1 (% UTC)” value under setting [4] was 96 % UTC.

With “716560 (kT*kA*kA*d[5mC]*dA*dA*dT*dT*dT*dA*dT*dG*dT*kA*kA*kG; antisense) [Compound 716560]”, the “YAP1 (% UTC)” value under setting [5] is listed as 107 % UTC.

In the case of “1074762 (kG*k[5mC]*kT*dA*d[5mC]*d[5mC]*d[5mC]*dA*dA*dT*dA*d[5mC]*dA*kA*k[5mC]*k[5mC]; antisense) [Compound 1074762]”, under setting [6], the “YAP1 (% UTC)” value is 6 % UTC.

Take “1074769 (kT*k[5mC]*kT*dT*dA*dT*d[5mC]*d[5mC]*d[5mC]*dA*dA*dT*dG*k[5mC]*kT*kA; antisense) [compound 1074769]”: under setting [7], the “YAP1 (% UTC)” value was determined as 12 % UTC.

As to “1076082 (kT*k[5mC]*kT*d[5mC]*dA*dA*dT*dA*d[5mC]*dA*d[5mC]*dT*dA*kT*kA*kT; antisense) [compound 1076082]”, the “YAP1 (% UTC)” value under setting [8] is listed as 38 % UTC.

For “716395 (kG*k[5mC]*k[5mC]*dG*d[5mC]*dA*dG*d[5mC]*d[5mC]*dT*d[5mC]*dT*d[5mC]*k[5mC]*kT*kT; antisense) [Compound 716395]”, the “YAP1 (% UTC)” value under setting [5] is 92 % UTC.

Turning to “1074823 (kG*kA*kG*d[5mC]*dA*d[5mC]*dT*d[5mC]*dA*dT*dT*dT*d[5mC]*kT*k[5mC]*kA; antisense) [Compound 1074823]”, the “YAP1 (% UTC)” value under setting [9] was 77 % UTC.

On to “1075755 (kA*k[5mC]*kT*dT*dA*dA*dA*dT*dG*dG*d[5mC]*dA*d[5mC]*kA*kG*kT; antisense) [Compound 1075755]”, for which, under setting [1], the “YAP1 (% UTC)” value is listed as 73 % UTC.

In the case of “716556 (kG*k[5mC]*kA*dT*dT*dA*dA*dA*dG*dA*dA*dT*dT*k[5mC]*kT*k[5mC]; antisense) [Compound 716556]”, the “YAP1 (% UTC)” value under setting [4] is 39 % UTC.

“1074768 (k[5mC]*kT*kT*dA*dT*d[5mC]*d[5mC]*d[5mC]*dA*dA*dT*dG*d[5mC]*kT*kA*k[5mC]; antisense) [compound 1074768]”: the “YAP1 (% UTC)” value under setting [10] is listed as 11 % UTC.

In the case of “1074790 (k[5mC]*kA*kT*d[5mC]*dA*dA*d[5mC]*d[5mC]*dA*dT*dA*dA*dG*kT*kA*kG; antisense) [Compound 1074790]”, the “YAP1 (% UTC)” value under setting [3] amounted to 28 % UTC.

For “1075664 (antisense kG*k[5mC]*kT*dA*dA*dA*dT*dA*dG*dG*dT*dG*dG*kT*kT*kA) [compound 1075664]”, the “YAP1 (% UTC)” value under setting [10] is on record as 87 % UTC.

With “1075847 (k[5mC]*kT*kT*dT*dA*dT*dA*dG*d[5mC]*dA*dG*dA*dT*kG*k[5mC]*k[5mC]; antisense) [Compound 1075847]”, the “YAP1 (% UTC)” value under setting [9] amounted to 14 % UTC.

“1074154 (antisense k[5mC]*k[5mC]*kA*d[5mC]*dG*dG*dG*d[5mC]*d[5mC]*dG*dA*dG*dG*kT*kG*kG) [Compound 1074154]”: under setting [6], the “YAP1 (% UTC)” value worked out at 100 % UTC.

In the case of “1075781 (k[5mC]*kA*kT*dA*dT*dA*dT*dT*dG*dT*dG*dA*d[5mC]*kT*kT*k[5mC]; antisense) [Compound 1075781]”, the “YAP1 (% UTC)” value under setting [2] is on record as 2 % UTC.

For “1074662 (antisense kG*kG*kT*dA*dG*dA*dA*dT*dT*dT*d[5mC]*dA*dT*kT*kA*k[5mC]) [Compound 1074662]”, under setting [3], the “YAP1 (% UTC)” value turned out to be 30 % UTC.

For “716537 (antisense kA*kT*kG*dT*dG*d[5mC]*dT*d[5mC]*d[5mC]*dA*dT*d[5mC]*dA*kA*k[5mC]*k[5mC]) [Compound 716537]”, the “YAP1 (% UTC)” value under setting [11] turned out to be 36 % UTC.

As for “1074544 (k[5mC]*kT*k[5mC]*d[5mC]*d[5mC]*d[5mC]*dT*dA*dG*dG*d[5mC]*dA*d[5mC]*kT*kA*kT; antisense) [compound 1074544]”, the “YAP1 (% UTC)” value under setting [10] is 34 % UTC.

As to “1074758 (k[5mC]*kA*kG*dT*dT*dA*dA*dG*d[5mC]*dA*d[5mC]*dT*dT*kT*kT*kA; antisense) [Compound 1074758]”, the “YAP1 (% UTC)” value under setting [3] amounted to 4 % UTC.

On to “1074568 (antisense kG*kA*kA*d[5mC]*d[5mC]*dT*dA*d[5mC]*dT*d[5mC]*dA*d[5mC]*dT*kG*kA*kA) [Compound 1074568]”, for which, where the note is “Table 22, Yap1 mRNA as percent of untreated control, 3-10-3 cEt gapmers, single dose”, the “YAP1 (% UTC)” value is given as 12 % UTC.

With “716397 (kG*kG*k[5mC]*d[5mC]*dT*d[5mC]*dA*d[5mC]*d[5mC]*dT*dG*d[5mC]*d[5mC]*kG*kA*kA; antisense) [Compound 716397]”, under setting [4], the “YAP1 (% UTC)” value was found to be 88 % UTC.

With “1074993 (antisense kT*k[5mC]*kT*dA*dA*dT*d[5mC]*dA*dA*d[5mC]*dA*d[5mC]*dT*kG*kG*kA) [compound 1074993]”, the “YAP1 (% UTC)” value under setting [7] turned out to be 65 % UTC.

With “1076083 (k[5mC]*kG*k[5mC]*dT*dA*dT*dA*dA*dA*dG*dT*dG*dG*k[5mC]*kA*kT; antisense) [compound 1076083]”, under setting [12], the “YAP1 (% UTC)” value is 46 % UTC.

For “1074309 (antisense k[5mC]*k[5mC]*kG*d[5mC]*dA*dT*dT*dG*d[5mC]*d[5mC]*dT*dG*dT*kG*kG*k[5mC]) [Compound 1074309]”, under setting [2], the “YAP1 (% UTC)” value amounted to 80 % UTC.

“1075813 (kA*k[5mC]*kT*dA*dA*dT*dA*dT*dG*d[5mC]*dA*dA*d[5mC]*kT*k[5mC]*kT; antisense) [Compound 1075813]”: under setting [2], the “YAP1 (% UTC)” value is given as 4 % UTC.

As to “1075762 (kG*kA*kT*dA*dA*dA*dT*dG*dG*dG*dT*dT*dG*kA*kT*kT; antisense) [compound 1075762]”, the “YAP1 (% UTC)” value under setting [8] is 20 % UTC.

For “1074122 (antisense k[5mC]*kT*kG*d[5mC]*dG*dA*dG*dG*d[5mC]*dA*d[5mC]*dT*d[5mC]*kG*kG*kA) [Compound 1074122]”, the “YAP1 (% UTC)” value under setting [6] worked out at 73 % UTC.

“1074628 (antisense kG*k[5mC]*k[5mC]*dT*dG*dT*dT*dA*dT*dG*dA*dA*d[5mC]*k[5mC]*k[5mC]*kT) [Compound 1074628]”: where the note is “Table 18, A-431 cells, 5,000 cells per well, free uptake, 2,000 nM modified oligonucleotide, approx. 48 hours, RTS4814, normalized to RIBOGREEN, Yap1 mRNA as percent of untreated control”, the “YAP1 (% UTC)” value is recorded as 5 % UTC.

For “1075691 (k[5mC]*kG*kT*d[5mC]*dA*dA*dA*dA*dT*dT*dA*dA*d[5mC]*kA*kG*kA; antisense) [Compound 1075691]”, the “YAP1 (% UTC)” value under setting [1] amounted to 46 % UTC.

As for “716452 (kT*kT*kA*d[5mC]*d[5mC]*dA*dA*dA*dA*d[5mC]*dA*dA*d[5mC]*kT*kA*k[5mC]; antisense) [Compound 716452]”, under setting [5], the “YAP1 (% UTC)” value is recorded as 98 % UTC.

With “1076041 (kG*kT*kT*dA*dA*dA*dG*dA*dG*dT*dG*dG*dA*kA*kA*kT; antisense) [Compound 1076041]”, the “YAP1 (% UTC)” value under setting [13] was found to be 47 % UTC.

Consider “716358 (k[5mC]*kG*kA*dG*dG*dG*d[5mC]*dT*dA*d[5mC]*dG*d[5mC]*d[5mC]*k[5mC]*kG*kG; antisense) [Compound 716358]”, for which the “YAP1 (% UTC)” value under setting [4] was 104 % UTC.

As to “1074833 (kT*kG*k[5mC]*dG*dA*dG*dG*dA*dT*dA*dA*dA*dA*kT*k[5mC]*k[5mC]; antisense) [compound 1074833]”, the “YAP1 (% UTC)” value under setting [7] worked out at 17 % UTC.

For “1076147 (kA*kT*kT*dA*dA*d[5mC]*dT*d[5mC]*dA*d[5mC]*dG*dA*dA*kG*kA*k[5mC]; antisense) [compound 1076147]”, the “YAP1 (% UTC)” value under setting [12] is 25 % UTC.

For the substance “716384 (kA*kG*kG*dA*d[5mC]*d[5mC]*dT*dG*dA*dA*dG*d[5mC]*d[5mC]*kG*kA*kG; antisense) [Compound 716384]”, the “YAP1 (% UTC)” value under setting [11] turned out to be 71 % UTC.

For “716516 (antisense kA*kA*k[5mC]*dT*dT*dT*d[5mC]*d[5mC]*d[5mC]*dA*d[5mC]*d[5mC]*d[5mC]*kT*k[5mC]*k[5mC]) [Compound 716516]”, the “YAP1 (% UTC)” value under setting [11] came out at 84 % UTC.

Turning to “1075785 (k[5mC]*kA*kT*dT*dT*dT*dA*dT*dA*dG*dG*dG*d[5mC]*k[5mC]*kA*kT; antisense) [Compound 1075785]”, the “YAP1 (% UTC)” value under setting [13] is 2 % UTC.

For the substance “1075143 (antisense k[5mC]*k[5mC]*kT*dT*dA*dT*dT*dA*dG*dT*d[5mC]*dA*dG*kT*kT*k[5mC]) [Compound 1075143]”, the “YAP1 (% UTC)” value under setting [9] is listed as 2 % UTC.
